Measured values as given in US20230416261A1, “ETHANEDIAMINE-HETEROCYCLE DERIVATIVES AS INHIBITORS OF PROTEIN ARGININE METHYLTRANSFERASES” (Board of Regents, The University of Texas System, priority 2021, published 2023).
pIC50: −log10 of the molar value.

Legend:
PRMT1 [1] = target: T1, PRMT1 (Homo sapiens, UniProt Q99873); experiment: PRMT1 RKO Cellular Target Engagement Assay (In-Cell Western, asymmetric di-methyl arginine); format: cell-based; conditions: RKO cells, 48 hr compound incubation; read-out: RKO IC50 (PRMT-1 Target Engagement)
Procedure: RKO cells were routinely maintained in EMEM media (ATCC, Catalog #30-2003) supplemented with 10% fetal bovine serum (Sigma, Catalog #F2442) using a humidified incubator (37° C., 5% CO2, and ambient O2).
In preparation for the In-Cell Western assay, cells were harvested and resuspended in EMEM media supplemented with 10% fetal bovine serum. Cells were seeded onto a 384 well, black, clear bottom, Poly-D-Lysine coated tissue culture plate (Greiner, Catalog #781946) at a density of 1,000 cells/well in a volume of 40 μL. The culture plate was incubated for 24 hr at 37° C. with 5% CO2 and ambient O2. Stock solutions of the test compounds were prepared in 100% DMSO (Sigma, Catalog #D2650) and serially diluted 1:3 using 100% DMSO. Compounds were additionally diluted 1:40 in culture medium, and 10 μL/well was transferred to the tissue culture plate. Following the compound addition the microplate was incubated at 37° C. for 48 hr.
The media was removed, the plate was washed with 1× PBS (Fisher Bioreagents, Catalog #BP399-20), and cells were fixed for 10 min using 30 μL/well of 4% paraformaldehyde (Electron Microscopy Sciences, Catalog #15710). The paraformaldehyde was removed, the plate was again washed with 1× PBS, and cells were permeabilized for 15 min using 30 μL/well of 1× PBS containing 0.5% Triton-X 100 (Sigma, Catalog #1001748095). The permeabilization buffer was removed, the plate was washed with 1× PBST (Boston BioProducts, Catalog #IBB-171X), and 50 μL/well of blocking buffer (LI-COR, Catalog #927-40000) was added followed by a 1 hour incubation at room temperature. The blocking buffer was removed, and 20 μL/well of anti-asymmetric di-methyl arginine antibody (Cell Signaling, Catalog #13522S) diluted 1:1000 in LI-COR blocking buffer was added to the plate and incubated overnight, in the dark at 4° C.
The primary antibody was then removed, and the plate was washed three times with 1× PBST. 20 μL/well of CellTag (LI-COR, Catalog #926-41090) and IRDye 800CW goat anti-rabbit IgG antibody (LI-COR, Catalog #926-32211), each diluted 1:500 in LI-COR blocking buffer supplemented with 0.1% Tween-20 (Thermo Scientific, Catalog #85114), were added to the plate. The plate was then incubated in the dark, at room temperature for 1 hour followed by three washes with 1× PBST and one wash with H2O. The IRDye secondary antibody signal (800 channel) and the CellTag signal (700 channel) were measured using a Licor Odyssey Imager, and the 800 channel signal was then normalized to the 700 channel signal. IC50 values were calculated using a four-parameter logistic curve fit using Genedata Screener software.

PATC53 cells = experiment: PATC53 Long Term Phenotypic Assay (14 days, crystal violet viability); format: cell-based; conditions: 336 h
Procedure: PATC53 cells were derived from the PATC53 PDX model and kindly provided by Jason Fleming (MDACC). The cells were routinely maintained in DMEM/F12 Medium (Corning, Catalog #10-090-CV) supplemented with 10% fetal bovine serum (Sigma, Catalog #F2442), 100 units/mL penicillin and 100 μg/mL streptomycin (Gibco, Catalog #15140-122) in a humidified incubator (37° C., 5% CO2). Prior to the assay, cells were seeded onto a 12-well, TC treated plate (Corning, catalog #353043) at a density of 250 cells per well in a volume of 1 mL. The plate was incubated for 24 hours at 37° C. and 5% CO2. Stock solutions of the test compounds were prepared in 100% DMSO (Sigma, Catalog #D2650) and serially diluted 1:3 using 100% DMSO. Compounds were additionally diluted 1:100 in culture medium, and 110 μL/well was transferred to the tissue culture plate. Following the compound addition, the plate was incubated at 37° C. and 5% CO2 for 14 days. Viability was then assessed by crystal violet staining (Fisher Scientific, Catalog #C58125) as follows: 450 μL of crystal violet (1 mg/mL) was added to the plate for a 10 minute incubation at room temperature. After incubation, the plate was washed 3× with distilled water to remove excess dye and allowed to dry overnight. The crystal violet was solubilized using 10% HOAc (500 μL) for 10 minutes at room temperature, while shaking. A volume of 100 μL was then transferred to a 96-well SpectraPlate (Perkin Elmer, Catalog #6005649). Absorbance at 590 nm was measured with a BioTek Synergy Neo. IC50 values were calculated using a four-parameter logistic curve fit using Genedata Screener software.

PRMT1 [2] = target: T1, PRMT1; experiment: PRMT1 Enzymatic Assay (LANCE TR-FRET, methylation of histone H4 at Arg3); format: biochemical; set-up: purchased SignalChem P365-380G; conditions: PRMT1 1.5 nM, SAM 1 μM, biotinylated histone H4 (1-21) 25 nM; read-out: PRMT-1 IC50
Procedure: In order to measure PRMT1 enzymatic activity the LANCE TR-FRET assay from PerkinElmer was used to follow the methylation of histone H4 at Arg3 using S-adenosyl-L-methionine (SAM) as the methyl group donor.
This enzymatic assay was performed in a 384 well, white, low volume plate (PerkinElmer, Catalog 6008289) with assay buffer consisting of 50 mM Hepes (pH 8) (Teknova, Catalog #H1090), 1 mM TCEP (Sigma, Catalog #C4706), and 0.003% Tween-20 (Thermo, Catalog #85114). Stock solutions of the test compounds were prepared in 100% DMSO (Sigma, Catalog #D2650) and serially diluted 1:3 using 100% DMSO. Compounds were additionally diluted 1:40 in assay buffer, and 2 uL/well were transferred to the assay plate. 4 uL/well (final concentration 1.5 nM) of PRMT1 protein (SignalChem, Catalog #P365-380G) diluted in assay buffer was added to the assay plate followed by a 15 min preincubation at room temperature. 4 uL/well of SAM (Sigma, Catalog #A7007) and biotinylated histone H4 (1-21) (AnaSpec, Catalog #62555) (final concentrations 1 μM and 25 nM, respectively) diluted in assay buffer were then added to the assay plate followed by a 1 hour reaction time. Final concentrations of PRMT1, SAM, and histone H4 (1-21) refer to a […].
Detection of methylated histone H4 (H4R^3me) was achieved by combining LANCE Ultra Europium-anti-H4R^3me antibody (PerkinElmer, Catalog #TRF04-14), LANCE Ultra ULight-anti-streptavidin antibody (PerkinElmer, Catalog #TRF0102), and sinefungin (Sigma, Catalog #S8559) (final concentrations 2 nM, 50 nM, and 100 μM respectively) in 1× LANCE detection buffer (PerkinElmer, Catalog #CR97-100) and adding L/well of the detection solution to the assay plate. Detection reagents were allowed to react for 1 hour at room temperature. Final concentrations in the detection solution refer to a L volume. The europium fluorescence signal and the ULight TR-FRET signal were measured using a BioTek Synergy Neo plate reader: excitation at 330 nm, emission at 620 nm and 665 nm respectively, and the ratio of the two signals (665 nm/620 nm) was used for curve fitting. IC50 values were calculated using a four-parameter logistic curve fit using Genedata Screener software.

DOHH2 cells = experiment: DOHH2 Long Term Phenotypic Assay (7 days, Cell Titer-Glo viability); format: cell-based; conditions: Homo sapiens, DOHH-2, 168 h, Cell Titer-Glo 2.0
Procedure: DOHH2 cells were kindly provided by Michael Green (MDACC). The cells were routinely maintained in RPMI-1640 Medium (ATCC, Catalog #30-2001) supplemented with 10% fetal bovine serum (Sigma, Catalog #F2442), 100 units/mL penicillin and 100 μg/mL streptomycin (Gibco, Catalog #15140-122) in a humidified incubator (37° C., 5% CO2). Cells were seeded onto a white, CulturPlate-384 (Perkin Elmer, catalog #6007680) at a density of 250 cells per well in a volume of 50 μL. Stock solutions of the test compounds were prepared in 100% DMSO (Sigma, Catalog #D2650) and serially diluted 1:3 using 100% DMSO. Compounds were additionally diluted 1:33 in culture medium, and 10 μL/well was transferred to the tissue culture plate. Following the compound addition, the plate was incubated at 37° C. and 5% CO2 for 7 days. Cells were then mixed and a 30 μL volume was removed. Viability was assessed by a 30 μL addition of Cell Titer-Glo 2.0 (Promega, catalog #G9243). The plate was then shaken on an orbital shaker at 300 RPM for 10 minutes at room temperature, in the dark. Luminescence was measured using a PerkinElmer Envision™ plate reader. IC50 values were calculated using a four-parameter logistic curve fit using Genedata Screener software.

T1 sequence (Q99873 whole entry): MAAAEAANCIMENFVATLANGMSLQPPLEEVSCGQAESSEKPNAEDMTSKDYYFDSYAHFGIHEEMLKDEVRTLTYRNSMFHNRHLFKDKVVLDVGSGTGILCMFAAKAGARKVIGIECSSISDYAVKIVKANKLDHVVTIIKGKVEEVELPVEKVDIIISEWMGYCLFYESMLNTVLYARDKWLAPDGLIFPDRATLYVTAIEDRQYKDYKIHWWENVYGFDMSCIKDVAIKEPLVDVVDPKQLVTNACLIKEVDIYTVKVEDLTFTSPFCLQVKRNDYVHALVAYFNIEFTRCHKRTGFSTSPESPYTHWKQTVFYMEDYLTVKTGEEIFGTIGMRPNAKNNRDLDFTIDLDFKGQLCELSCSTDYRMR

CCOCC1(COCC)CCC(c2c(CN(C)CCNC)nn3c2CN(C(=O)CC(F)(F)F)CC3)CC1 [Example 3, 1-(3-(4,4-bis(ethoxymethyl)-cyclohexyl)-2-((methyl(2-(methylamino)ethyl)amino)-methyl)-6,7-dihydropyrazolo-[1,5-a]pyrazin-5(4H)-yl)-3,3,3-trifluoropropan-1-one]
pIC50 (PRMT1 [1]): 6.82 | pIC50 (PATC53 cells): 6.37 | pIC50 (PRMT1 [2]): 7.24

CCOCC1(COCC)CCC(c2c(CN(C)CCNC)nn3c2CN(C(=O)C2CC2)CC3)CC1 [Example 4, (3-(4,4-bis(ethoxymethyl)-cyclohexyl)-2-((methyl(2-(methylamino)ethyl)amino)-methyl)-6,7-dihydropyrazolo-[1,5-a]pyrazin-5(4H)-yl)-(cyclopropyl)methanone]
pIC50 (PRMT1 [1]): 6.96 | pIC50 (PATC53 cells): 5.90 | pIC50 (DOHH2 cells): 7.33 | pIC50 (PRMT1 [2]): 7.32

CNCCN(C)Cc1nn2c(c1C1CCC(COC)(COC)CC1)CN(C(=O)CC(F)(F)F)CC2 [Example 7, 1-(3-(4,4-bis(methoxy-methyl)cyclohexyl)-2-((methyl(2-(methylamino)-ethyl)amino)methyl)-6,7-dihydropyrazolo[1,5-a]-pyrazin-5(4H)-yl)-3,3,3-trifluoropropan-1-one]
pIC50 (PRMT1 [1]): 5.79 | pIC50 (PATC53 cells): 6.68 | pIC50 (PRMT1 [2]): 7.49

CNCCN(C)Cc1nn2c(c1C1CCC(COC)(COC)CC1)CN(C(=O)C1COC1)CC2 [Example 9, (3-(4,4-bis(methoxymethyl)-cyclohexyl)-2-((methyl(2-(methylamino)ethyl)amino)-methyl)-6,7-dihydropyrazolo-[1,5-a]pyrazin-5(4H)-yl)-(oxetan-3-yl)methanone]
pIC50 (PRMT1 [1]): 5.95 | pIC50 (PATC53 cells): 5.88 | pIC50 (PRMT1 [2]): 7.19

COCC1(COC)CCC(c2c(CN(C)CCN)nn3c2CN(C(=O)CC(F)(F)F)CC3)CC1 [Example 10, 1-(2-(((2-aminoethyl)-(methyl)amino)methyl)-3-(4,4-bis(methoxymethyl)-cyclohexyl)-6,7-dihydro-pyrazolo[1,5-a]pyrazin-5(4H)-yl)-3,3,3-trifluoropropan-1-one]
pIC50 (PRMT1 [1]): 6.16 | pIC50 (PATC53 cells): 6.19 | pIC50 (PRMT1 [2]): 7.70

COCC1(COC)CCC(c2c(CN(C)CCN)nn3c2CN(C(=O)C2COC2)CC3)CC1 [Example 12, (2-(((2-aminoethyl)(methyl)-amino)methyl)-3-(4,4-bis-(methoxymethyl)cyclohexyl)-6,7-dihydropyrazolo[1,5-a]-pyrazin-5(4H)-yl)(oxetan-3-yl)methanone]
pIC50 (PATC53 cells): 5.41 | pIC50 (PRMT1 [2]): 7.64

CNCCN(C)Cc1nn2c(c1C1CCC(COC)(COC)CC1)CN(C(=O)C1(C)CC1)CC2 [Example 17, (3-(4,4-bis(methoxymethyl)-cyclohexyl)-2-((methyl(2-(methylamino)ethyl)amino)-methyl)-6,7-dihydropyrazolo-[1,5-a]pyrazin-5(4H)-yl)(1-methylcyclopropyl)-methanone]
pIC50 (PRMT1 [1]): 6.43 | pIC50 (PATC53 cells): 6.88 | pIC50 (PRMT1 [2]): 7.25

CNCCN(C)Cc1nn2c(c1C1CCC(COC)(COC)CC1)CN(C(=O)C13CC(C#N)(C1)C3)CC2 [Example 22, 3-(3-(4,4-bis(methoxy-methyl)cyclohexyl)-2-((methyl(2-(methylamino)-ethyl)amino)methyl)-4,5,6,7-tetrahydropyrazolo[1,5-a]-pyrazine-5-carbonyl)bicyclo[1.1.1] pentane-1-carbonitrile]
pIC50 (PRMT1 [1]): 5.85 | pIC50 (PATC53 cells): 6.35 | pIC50 (PRMT1 [2]): 7.14

CNCCN(C)Cc1nn2c(c1C1CCC(COC)(COC)CC1)CN(C(=O)C1CCOCC1)CC2 [Example 31, (3-(4,4-bis(methoxymethyl)-cyclohexyl)-2-((methyl(2-(methylamino)ethyl)amino)-methyl)-6,7-dihydropyrazolo-[1,5-a]pyrazin-5(4H)-yl)-(tetrahydro-2H-pyran-4-yl)-methanone]
pIC50 (PATC53 cells): 6.23 | pIC50 (DOHH2 cells): 6.69 | pIC50 (PRMT1 [2]): 6.97

CNCCN(C)Cc1nn2c(c1C1CCC(COC)(COC)CC1)CN(C(=O)CC1CCOCC1)CC2 [Example 34, 1-(3-(4,4-bis(methoxy-methyl)cyclohexyl)-2-((methyl(2-(methylamino)-ethyl)amino)methyl)-6,7-dihydropyrazolo[1,5-a]-pyrazin-5(4H)-yl)-2-(tetrahydro-2H-pyran-4-yl)ethan-1-one]
pIC50 (PATC53 cells): 6.19 | pIC50 (DOHH2 cells): 6.70 | pIC50 (PRMT1 [2]): 6.91
